Blank lines part the entries; values can stand above or below the compound they belong to.
Legend:
Test in all cases: radiometric filter-binding kinase assay, Kinase HotSpot
Details in all cases: compound 0.5 µM; ATP 10 µM
HIPK2 (human) = HIPK2 (human) (UniProt Q9H2X6)
MKNK2 (human) = MKNK2 (human) (UniProt Q9HBH9)
CAMK2G (human) = CAMK2G (human) (UniProt Q13555)
BRAF (human) = BRAF (human) (UniProt P15056)
TNK2 (human) = TNK2 (human) (UniProt Q07912)
MAP3K5 (human) = MAP3K5 (human) (UniProt Q99683)
CHEK2 (human) = CHEK2 (human) (UniProt O96017)
AURKC (human) = AURKC (human) (UniProt Q9UQB9)
FGFR4 (human) = FGFR4 (human) (UniProt P22455)
MARK4 (human) = MARK4 (human) (UniProt Q96L34)
CDK2 CCNE1 (human) = CDK2 CCNE1 (human) (UniProt P24941+P24864)
ROCK2 (human) = ROCK2 (human) (UniProt O75116)
EPHA6 (human) = EPHA6 (human) (UniProt Q9UF33)
HIPK1 (human) = HIPK1 (human) (UniProt Q86Z02)
STK39 (human) = STK39 (human) (UniProt Q9UEW8)
PAK3 (human) = PAK3 (human) (UniProt O75914)
DAPK2 (human) = DAPK2 (human) (UniProt Q9UIK4)
NEK6 (human) = NEK6 (human) (UniProt Q9HC98)
ACVR1 (human) = ACVR1 (human) (UniProt Q04771)
PKN1 (human) = PKN1 (human) (UniProt Q16512)
LRRK2 (human) = LRRK2 (human) (UniProt Q5S007)
TEK (human) = TEK (human) (UniProt Q02763)
MYLK2 (human) = MYLK2 (human) (UniProt Q9H1R3)
INSR (human) = INSR (human) (UniProt P06213)
Sequence of INSR (human) (P06213 whole entry, looked up): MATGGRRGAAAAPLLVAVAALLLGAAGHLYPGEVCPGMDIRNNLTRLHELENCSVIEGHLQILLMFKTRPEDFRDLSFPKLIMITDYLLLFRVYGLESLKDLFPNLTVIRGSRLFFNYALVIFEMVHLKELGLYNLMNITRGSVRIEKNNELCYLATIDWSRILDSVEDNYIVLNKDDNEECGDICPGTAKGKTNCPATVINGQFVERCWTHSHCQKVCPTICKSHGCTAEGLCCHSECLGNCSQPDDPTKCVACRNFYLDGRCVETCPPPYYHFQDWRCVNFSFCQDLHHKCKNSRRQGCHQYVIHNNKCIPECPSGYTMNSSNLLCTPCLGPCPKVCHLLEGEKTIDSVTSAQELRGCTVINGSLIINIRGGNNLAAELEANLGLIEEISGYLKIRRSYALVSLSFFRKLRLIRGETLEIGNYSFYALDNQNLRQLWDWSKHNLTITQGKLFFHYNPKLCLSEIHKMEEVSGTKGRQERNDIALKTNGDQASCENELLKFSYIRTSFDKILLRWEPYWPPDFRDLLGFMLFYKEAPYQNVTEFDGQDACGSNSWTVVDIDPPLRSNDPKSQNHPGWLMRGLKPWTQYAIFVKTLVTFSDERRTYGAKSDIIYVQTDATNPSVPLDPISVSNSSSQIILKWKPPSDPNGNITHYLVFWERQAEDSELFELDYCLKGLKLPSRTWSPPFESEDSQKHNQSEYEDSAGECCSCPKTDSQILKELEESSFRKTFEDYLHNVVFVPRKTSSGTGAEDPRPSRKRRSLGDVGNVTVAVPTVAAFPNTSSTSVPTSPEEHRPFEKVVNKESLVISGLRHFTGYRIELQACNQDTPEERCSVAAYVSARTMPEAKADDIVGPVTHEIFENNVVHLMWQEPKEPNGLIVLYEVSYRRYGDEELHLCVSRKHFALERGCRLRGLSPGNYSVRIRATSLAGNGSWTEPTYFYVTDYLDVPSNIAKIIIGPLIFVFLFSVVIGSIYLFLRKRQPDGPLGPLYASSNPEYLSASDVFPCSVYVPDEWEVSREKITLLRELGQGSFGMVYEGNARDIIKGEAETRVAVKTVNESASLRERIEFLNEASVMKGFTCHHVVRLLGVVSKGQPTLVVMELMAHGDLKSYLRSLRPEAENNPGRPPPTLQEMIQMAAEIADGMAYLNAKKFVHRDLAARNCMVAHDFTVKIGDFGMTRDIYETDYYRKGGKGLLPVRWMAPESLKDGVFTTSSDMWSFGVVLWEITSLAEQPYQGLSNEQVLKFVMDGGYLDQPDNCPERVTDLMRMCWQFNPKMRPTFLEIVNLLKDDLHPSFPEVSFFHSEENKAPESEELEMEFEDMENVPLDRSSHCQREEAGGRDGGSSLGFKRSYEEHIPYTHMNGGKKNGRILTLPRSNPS

CSNK1G2 (human) = CSNK1G2 (human) (UniProt P78368)
MAPK3 (human) = MAPK3 (human) (UniProt P27361)
CLK4 (human) = CLK4 (human) (UniProt Q9HAZ1)
MELK (human) = MELK (human) (UniProt Q14680)
Sequence of MELK (human) (Q14680 whole entry, looked up): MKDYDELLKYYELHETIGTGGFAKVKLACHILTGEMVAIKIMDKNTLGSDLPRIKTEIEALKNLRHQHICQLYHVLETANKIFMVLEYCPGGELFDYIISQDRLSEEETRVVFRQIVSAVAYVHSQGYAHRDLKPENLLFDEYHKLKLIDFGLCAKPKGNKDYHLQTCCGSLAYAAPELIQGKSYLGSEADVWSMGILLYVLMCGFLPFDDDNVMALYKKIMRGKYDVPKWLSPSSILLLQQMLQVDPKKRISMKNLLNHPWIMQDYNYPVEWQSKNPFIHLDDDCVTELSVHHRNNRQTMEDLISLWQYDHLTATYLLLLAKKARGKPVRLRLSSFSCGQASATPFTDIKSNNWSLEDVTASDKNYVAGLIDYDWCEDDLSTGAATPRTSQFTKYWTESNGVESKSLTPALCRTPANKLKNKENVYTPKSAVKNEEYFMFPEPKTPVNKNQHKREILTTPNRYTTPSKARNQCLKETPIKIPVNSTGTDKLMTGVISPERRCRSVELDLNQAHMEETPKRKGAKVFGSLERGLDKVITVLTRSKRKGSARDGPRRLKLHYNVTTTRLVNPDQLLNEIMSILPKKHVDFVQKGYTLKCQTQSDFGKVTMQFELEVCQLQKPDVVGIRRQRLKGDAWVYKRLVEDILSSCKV

TGFBR1 (human) = TGFBR1 (human) (UniProt P36897)
HIPK3 (human) = HIPK3 (human) (UniProt Q9H422)
ULK1 (human) = ULK1 (human) (UniProt O75385)
KDR (human) = KDR (human) (UniProt P35968)
EPHA3 (human) = EPHA3 (human) (UniProt P29320)
CDK2 CCNA2 (human) = CDK2 CCNA2 (human) (UniProt P24941+P20248)
FES (human) = FES (human) (UniProt P07332)
INSRR (human) = INSRR (human) (UniProt P14616)
RPS6KA6 KD1 KD2 (human) = RPS6KA6 KD1 KD2 (human) (UniProt Q9UK32)
Sequence of RPS6KA6 KD1 KD2 (human) (Q9UK32 whole entry, looked up): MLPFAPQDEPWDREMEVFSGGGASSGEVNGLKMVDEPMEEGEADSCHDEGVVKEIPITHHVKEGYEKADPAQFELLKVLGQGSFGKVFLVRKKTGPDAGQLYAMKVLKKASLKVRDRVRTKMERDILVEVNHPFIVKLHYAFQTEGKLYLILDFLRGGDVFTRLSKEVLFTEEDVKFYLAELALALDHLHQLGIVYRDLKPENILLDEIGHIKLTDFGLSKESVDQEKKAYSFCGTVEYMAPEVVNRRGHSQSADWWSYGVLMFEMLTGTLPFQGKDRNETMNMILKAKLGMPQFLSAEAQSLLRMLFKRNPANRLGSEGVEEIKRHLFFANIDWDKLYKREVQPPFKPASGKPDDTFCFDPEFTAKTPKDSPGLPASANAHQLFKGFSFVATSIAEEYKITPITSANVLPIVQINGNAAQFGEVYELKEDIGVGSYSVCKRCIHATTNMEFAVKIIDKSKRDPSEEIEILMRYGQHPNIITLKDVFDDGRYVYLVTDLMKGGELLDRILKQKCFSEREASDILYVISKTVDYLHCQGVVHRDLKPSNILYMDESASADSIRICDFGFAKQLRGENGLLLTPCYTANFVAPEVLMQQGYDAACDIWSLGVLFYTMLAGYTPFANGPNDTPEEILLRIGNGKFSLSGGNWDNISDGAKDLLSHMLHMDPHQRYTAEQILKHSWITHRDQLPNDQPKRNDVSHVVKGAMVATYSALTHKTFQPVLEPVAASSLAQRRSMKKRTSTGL

PRKACG (human) = PRKACG (human) (UniProt P22612)
Sequence of PRKACG (human) (P22612 whole entry, looked up): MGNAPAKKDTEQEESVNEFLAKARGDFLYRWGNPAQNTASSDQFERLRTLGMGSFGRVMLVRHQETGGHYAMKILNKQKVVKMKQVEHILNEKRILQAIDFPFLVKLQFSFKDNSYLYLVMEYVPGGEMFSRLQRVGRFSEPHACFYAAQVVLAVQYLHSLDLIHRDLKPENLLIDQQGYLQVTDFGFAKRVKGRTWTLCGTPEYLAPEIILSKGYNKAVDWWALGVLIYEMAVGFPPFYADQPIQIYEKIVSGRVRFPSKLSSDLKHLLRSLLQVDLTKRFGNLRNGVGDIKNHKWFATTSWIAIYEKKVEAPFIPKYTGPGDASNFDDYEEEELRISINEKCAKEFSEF

TLK2 (human) = TLK2 (human) (UniProt Q86UE8)
Sequence of TLK2 (human) (Q86UE8 whole entry, looked up): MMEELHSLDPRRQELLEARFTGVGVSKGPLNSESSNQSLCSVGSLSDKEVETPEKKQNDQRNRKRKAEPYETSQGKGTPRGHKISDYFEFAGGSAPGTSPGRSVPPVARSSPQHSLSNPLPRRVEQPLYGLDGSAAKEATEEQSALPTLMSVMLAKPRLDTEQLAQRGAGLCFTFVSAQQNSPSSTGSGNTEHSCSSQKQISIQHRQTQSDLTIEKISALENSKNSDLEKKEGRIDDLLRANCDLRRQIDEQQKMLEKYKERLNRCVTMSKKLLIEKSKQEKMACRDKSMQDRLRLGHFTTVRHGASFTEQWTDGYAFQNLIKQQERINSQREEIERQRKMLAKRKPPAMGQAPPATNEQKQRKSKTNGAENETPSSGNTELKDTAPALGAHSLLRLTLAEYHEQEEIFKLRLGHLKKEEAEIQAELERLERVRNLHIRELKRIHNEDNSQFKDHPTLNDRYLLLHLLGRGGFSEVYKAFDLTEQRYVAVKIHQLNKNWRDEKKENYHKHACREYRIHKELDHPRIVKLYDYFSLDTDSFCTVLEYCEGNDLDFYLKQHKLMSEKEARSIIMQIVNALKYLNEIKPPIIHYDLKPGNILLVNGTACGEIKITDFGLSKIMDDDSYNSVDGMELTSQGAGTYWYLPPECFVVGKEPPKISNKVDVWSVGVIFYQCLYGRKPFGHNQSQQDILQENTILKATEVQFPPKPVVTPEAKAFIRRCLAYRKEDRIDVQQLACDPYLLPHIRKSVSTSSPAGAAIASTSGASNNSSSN

PDGFRB (human) = PDGFRB (human) (UniProt P09619)
CDC42BPA (human) = CDC42BPA (human) (UniProt Q5VT25)

Sequence of HIPK2 (human) (Q9H2X6 whole entry, looked up): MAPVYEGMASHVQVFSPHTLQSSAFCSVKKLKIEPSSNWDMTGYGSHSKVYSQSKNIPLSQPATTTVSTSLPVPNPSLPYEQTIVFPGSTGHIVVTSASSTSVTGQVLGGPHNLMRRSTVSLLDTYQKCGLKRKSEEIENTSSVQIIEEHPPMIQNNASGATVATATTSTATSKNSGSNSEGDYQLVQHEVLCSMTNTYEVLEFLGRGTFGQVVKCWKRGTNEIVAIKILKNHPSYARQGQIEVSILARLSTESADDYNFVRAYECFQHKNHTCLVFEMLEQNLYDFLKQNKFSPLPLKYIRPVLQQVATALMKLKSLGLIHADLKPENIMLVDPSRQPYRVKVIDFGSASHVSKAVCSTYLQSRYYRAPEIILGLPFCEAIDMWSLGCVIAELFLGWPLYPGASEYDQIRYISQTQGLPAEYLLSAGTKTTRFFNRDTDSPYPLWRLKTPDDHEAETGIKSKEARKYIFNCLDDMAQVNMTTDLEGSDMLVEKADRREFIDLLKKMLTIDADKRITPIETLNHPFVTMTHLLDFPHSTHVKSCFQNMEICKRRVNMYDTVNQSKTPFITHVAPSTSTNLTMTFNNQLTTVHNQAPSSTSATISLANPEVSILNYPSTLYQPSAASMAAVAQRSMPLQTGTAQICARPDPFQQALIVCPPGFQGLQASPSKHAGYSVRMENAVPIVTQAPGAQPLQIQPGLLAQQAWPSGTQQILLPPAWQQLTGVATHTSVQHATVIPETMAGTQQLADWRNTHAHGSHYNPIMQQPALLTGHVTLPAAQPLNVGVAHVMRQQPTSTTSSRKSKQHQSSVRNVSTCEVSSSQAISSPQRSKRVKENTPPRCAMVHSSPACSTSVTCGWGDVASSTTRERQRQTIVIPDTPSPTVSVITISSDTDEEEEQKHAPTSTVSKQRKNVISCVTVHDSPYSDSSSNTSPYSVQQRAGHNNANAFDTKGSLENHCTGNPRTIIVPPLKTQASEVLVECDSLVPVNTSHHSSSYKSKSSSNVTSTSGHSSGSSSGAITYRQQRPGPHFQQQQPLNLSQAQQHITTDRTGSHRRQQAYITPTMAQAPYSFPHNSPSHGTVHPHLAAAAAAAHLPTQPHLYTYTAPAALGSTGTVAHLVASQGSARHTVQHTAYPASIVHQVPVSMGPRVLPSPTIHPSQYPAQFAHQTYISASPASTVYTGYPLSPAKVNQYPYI

SMILES: O=C1NC(=O)/C(=C/c2ccc3c(c2)OC(F)(F)O3)S1
- residual activity (HIPK2 (human)): 104%
- residual activity (MKNK2 (human)): 98.3%
- residual activity (CAMK2G (human)): 102%
- residual activity (BRAF (human)): 96.3%
- residual activity (TNK2 (human)): 93.3%
- residual activity (MAP3K5 (human)): 105%
- residual activity (CHEK2 (human)): 97.9%
- residual activity (AURKC (human)): 98.1%
- residual activity (FGFR4 (human)): 91%
- residual activity (MARK4 (human)): 97.8%
- residual activity (CDK2 CCNE1 (human)): 89.9%
- residual activity (ROCK2 (human)): 92.4%
- residual activity (EPHA6 (human)): 83.1%
- residual activity (HIPK1 (human)): 95.9%
- residual activity (STK39 (human)): 110%
- residual activity (PAK3 (human)): 93.1%
- residual activity (DAPK2 (human)): 105%
- residual activity (NEK6 (human)): 113%
- residual activity (ACVR1 (human)): 97.4%
- residual activity (PKN1 (human)): 98.5%
- residual activity (LRRK2 (human)): 103%
- residual activity (TEK (human)): 91.9%
- residual activity (MYLK2 (human)): 96.6%
- residual activity (INSR (human)): 106%
- residual activity (CSNK1G2 (human)): 84.5%
- residual activity (MAPK3 (human)): 91.6%
- residual activity (CLK4 (human)): 88.8%
- residual activity (MELK (human)): 94.4%
- residual activity (TGFBR1 (human)): 102%
- residual activity (HIPK3 (human)): 90.1%
- residual activity (ULK1 (human)): 100%
- residual activity (KDR (human)): 94.6%
- residual activity (EPHA3 (human)): 97.6%
- residual activity (CDK2 CCNA2 (human)): 107%
- residual activity (FES (human)): 98.3%
- residual activity (INSRR (human)): 110%
- residual activity (RPS6KA6 KD1 KD2 (human)): 96.5%
- residual activity (PRKACG (human)): 102%
- residual activity (TLK2 (human)): 104%
- residual activity (PDGFRB (human)): 97.4%
- residual activity (CDC42BPA (human)): 98.5%

- residual activity (HIPK2 (human)): 105%
- residual activity (MKNK2 (human)): 106%
- residual activity (CAMK2G (human)): 119%
- residual activity (BRAF (human)): 91.9%
- residual activity (TNK2 (human)): 65.4%
- residual activity (MAP3K5 (human)): 105%
- residual activity (CHEK2 (human)): 85.1%
- residual activity (AURKC (human)): 37.9%
- residual activity (FGFR4 (human)): 104%
- residual activity (MARK4 (human)): 36.2%
- residual activity (CDK2 CCNE1 (human)): 87%
- residual activity (ROCK2 (human)): 58.2%
- residual activity (EPHA6 (human)): 24%
- residual activity (HIPK1 (human)): 104%
- residual activity (STK39 (human)): 84.7%
- residual activity (PAK3 (human)): 93.5%
- residual activity (DAPK2 (human)): 111%
- residual activity (NEK6 (human)): 104%
- residual activity (ACVR1 (human)): 96.8%
- residual activity (PKN1 (human)): 86.4%
- residual activity (LRRK2 (human)): 6.63%
- residual activity (TEK (human)): 90.8%
- residual activity (MYLK2 (human)): 73.8%
- residual activity (INSR (human)): 98.8%
- residual activity (CSNK1G2 (human)): 99.7%
- residual activity (MAPK3 (human)): 106%
- residual activity (CLK4 (human)): 34.3%
- residual activity (MELK (human)): 78.9%
- residual activity (TGFBR1 (human)): 103%
- residual activity (HIPK3 (human)): 103%
- residual activity (ULK1 (human)): 5.17%
- residual activity (KDR (human)): 79.4%
- residual activity (EPHA3 (human)): 103%
- residual activity (CDK2 CCNA2 (human)): 103%
- residual activity (FES (human)): 96%
- residual activity (INSRR (human)): 93%
- residual activity (RPS6KA6 KD1 KD2 (human)): 67.8%
- residual activity (PRKACG (human)): 111%
- residual activity (TLK2 (human)): 95.8%
- residual activity (PDGFRB (human)): 76.4%
- residual activity (CDC42BPA (human)): 105%
SMILES: Cc1[nH]c(/C=C2\C(=O)Nc3ccc(S(=O)(=O)N(C)c4cccc(Cl)c4)cc32)c(C)c1C(=O)N1CCN(C)CC1

SMILES: N#C/C(=C(/N)Sc1ccc(N)cc1)c1ccccc1C(F)(F)F
- residual activity (HIPK2 (human)): 115%
- residual activity (MKNK2 (human)): 109%
- residual activity (CAMK2G (human)): 106%
- residual activity (BRAF (human)): 95%
- residual activity (TNK2 (human)): 100%
- residual activity (MAP3K5 (human)): 108%
- residual activity (CHEK2 (human)): 97.7%
- residual activity (AURKC (human)): 97.5%
- residual activity (FGFR4 (human)): 108%
- residual activity (MARK4 (human)): 101%
- residual activity (CDK2 CCNE1 (human)): 95.4%
- residual activity (ROCK2 (human)): 100%
- residual activity (EPHA6 (human)): 92.3%
- residual activity (HIPK1 (human)): 107%
- residual activity (STK39 (human)): 94.6%
- residual activity (PAK3 (human)): 99.2%
- residual activity (DAPK2 (human)): 112%
- residual activity (NEK6 (human)): 101%
- residual activity (ACVR1 (human)): 101%
- residual activity (PKN1 (human)): 104%
- residual activity (LRRK2 (human)): 100%
- residual activity (TEK (human)): 104%
- residual activity (MYLK2 (human)): 100%
- residual activity (INSR (human)): 101%
- residual activity (CSNK1G2 (human)): 96.4%
- residual activity (MAPK3 (human)): 116%
- residual activity (CLK4 (human)): 93.4%
- residual activity (MELK (human)): 96.1%
- residual activity (TGFBR1 (human)): 98.3%
- residual activity (HIPK3 (human)): 114%
- residual activity (ULK1 (human)): 99.6%
- residual activity (KDR (human)): 94.4%
- residual activity (EPHA3 (human)): 105%
- residual activity (CDK2 CCNA2 (human)): 95.9%
- residual activity (FES (human)): 98%
- residual activity (INSRR (human)): 88.1%
- residual activity (RPS6KA6 KD1 KD2 (human)): 83.9%
- residual activity (PRKACG (human)): 101%
- residual activity (TLK2 (human)): 92.5%
- residual activity (PDGFRB (human)): 103%
- residual activity (CDC42BPA (human)): 103%
